According to PubChem BioAssay AID256 (DTP/NCI, 2004):
Where “and” joins values, the source holds several entries; their conditions need not be identical. Identical values can stand only once. Inconclusive results and toxic doses are left out. Rule for the calls: active = survival T/C of 150% or more; inactive = T/C below 125% in these data.

Tested on: CD2F1 mice, L1210 leukemia ip, survival T/C
Assay: NCI In Vivo Anticancer Drug Screen. Data for tumor model L1210 Leukemia (intraperitoneal) in CD2F1 (CDF1) mice
Settings: higher = longer survival
Method in brief: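 Implant tumor; dose compound or vehicle; measure endpoint in both groups; report treated divided by control.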

[1] = endpoint: mean survival time, dose: 100.0 mg/kg/injection, schedule: Q01DX001 (ip), vehicle: saline with Tween-80
[2] = endpoint: mean survival time, dose: 200.0 mg/kg/injection, schedule: Q01DX001 (ip), vehicle: saline with Tween-80
[3] = endpoint: mean survival time, dose: 400.0 mg/kg/injection, schedule: Q01DX001 (ip), vehicle: saline with Tween-80
[4] = endpoint: mean survival time, dose: 50.0 mg/kg/injection, schedule: Q01DX009 (ip), vehicle: saline with Tween-80
[5] = endpoint: mean survival time, dose: 100.0 mg/kg/injection, schedule: Q04DX002 (ip), vehicle: saline with Tween-80
[6] = endpoint: mean survival time, dose: 100.0 mg/kg/injection, schedule: Q04DX003 (ip), vehicle: saline with Tween-80
[7] = endpoint: mean survival time, dose: 200.0 mg/kg/injection, schedule: Q04DX002 (ip), vehicle: saline with Tween-80
[8] = endpoint: mean survival time, dose: 200.0 mg/kg/injection, schedule: Q04DX003 (ip), vehicle: saline with Tween-80
[9] = endpoint: mean survival time, dose: 400.0 mg/kg/injection, schedule: Q04DX002 (ip), vehicle: saline with Tween-80
[10] = endpoint: mean survival time, dose: 400.0 mg/kg/injection, schedule: Q04DX003 (ip), vehicle: saline with Tween-80
[11] = endpoint: mean survival time, dose: 25.0 mg/kg/injection, schedule: Q04DX003 (ip), vehicle: saline
[12] = endpoint: mean survival time, dose: 50.0 mg/kg/injection, schedule: Q04DX003 (ip), vehicle: saline
[13] = endpoint: mean survival time, dose: 100.0 mg/kg/injection, schedule: Q01DX009 (ip), vehicle: saline with Tween-80
[14] = endpoint: mean survival time, dose: 200.0 mg/kg/injection, schedule: Q01DX009 (ip), vehicle: saline with Tween-80
[15] = endpoint: mean survival time, dose: 100.0 mg/kg/injection, schedule: Q04DX003 (ip), vehicle: saline

Measured: T/C

O=NN(CCCl)C(=O)NCCO
inactive: endpoint: mean survival time, dose: 2.5 mg/kg/injection, schedule: Q01DX001 (ip), vehicle: water 120 % of control | endpoint: mean survival time, dose: 25.0 mg/kg/injection, schedule: Q01DX009 (ip), vehicle: water 101 % of control | endpoint: median survival time, dose: 12.0 mg/kg/injection, schedule: Q01DX009 (ip), vehicle: water 103 % of control | endpoint: median survival time, dose: 12.5 mg/kg/injection, schedule: Q01DX009 (ip), vehicle: water 114 % of control and 103 % of control | endpoint: median survival time, dose: 25.0 mg/kg/injection, schedule: Q01DX009 (ip), vehicle: water 97 % of control
active: endpoint: mean survival time, dose: 3.13 mg/kg/injection, schedule: Q01DX009 (ip), vehicle: water 355 % of control | endpoint: mean survival time, dose: 5.0 mg/kg/injection, schedule: Q01DX001 (ip), vehicle: water 158 % of control | endpoint: mean survival time, dose: 6.25 mg/kg/injection, schedule: Q01DX009 (ip), vehicle: water 242 % of control | endpoint: mean survival time, dose: 10.0 mg/kg/injection, schedule: Q01DX001 (ip), vehicle: water 166 % of control and 411 % of control | endpoint: mean survival time, dose: 12.5 mg/kg/injection, schedule: Q01DX009 (ip), vehicle: water 187 % of control | endpoint: mean survival time, dose: 20.0 mg/kg/injection, schedule: Q01DX001 (ip), vehicle: water 333 % of control and 491 % of control | endpoint: median survival time, dose: 0.75 mg/kg/injection, schedule: Q01DX009 (ip), vehicle: water 164 % of control | endpoint: median survival time, dose: 0.78 mg/kg/injection, schedule: Q01DX009 (ip), vehicle: water 241 % of control | endpoint: median survival time, dose: 1.5 mg/kg/injection, schedule: Q01DX009 (ip), vehicle: water 223 % of control | endpoint: median survival time, dose: 1.56 mg/kg/injection, schedule: Q01DX009 (ip), vehicle: water 198 % of control | endpoint: median survival time, dose: 1.57 mg/kg/injection, schedule: Q01DX009 (ip), vehicle: water 275 % of control | endpoint: median survival time, dose: 3.0 mg/kg/injection, schedule: Q01DX009 (ip), vehicle: water 352 % of control | endpoint: median survival time, dose: 3.12 mg/kg/injection, schedule: Q01DX009 (ip), vehicle: water 308 % of control | endpoint: median survival time, dose: 3.13 mg/kg/injection, schedule: Q01DX009 (ip), vehicle: water 375 % of control | endpoint: median survival time, dose: 6.0 mg/kg/injection, schedule: Q01DX009 (ip), vehicle: water 268 % of control | endpoint: median survival time, dose: 6.25 mg/kg/injection, schedule: Q01DX009 (ip), vehicle: water 212 % of control and 262 % of control

CCN(CC)C1=C(c2ccccc2)C(=O)C(=O)C1c1ccccc1 (stereo not given)
inactive: [1] 103 % of control | [2] 107 % of control | [3] 94 % of control

CCOC(=O)c1ccc(OC(=O)Nc2cc(C)ccc2C)cc1
inactive: [4] 100 % of control | [1] 103 % of control | [5] 98 % of control and 101 % of control | [6] 97 % of control | [2] 100 % of control | [7] 113 % of control and 109 % of control | [8] 92 % of control | [3] 102 % of control | [9] 114 % of control and 102 % of control | [10] 94 % of control

NCC(S)c1ccc(Cl)cc1 (stereo not given)
inactive: endpoint: mean survival time, dose: 12.5 mg/kg/injection, schedule: Q04DX003 (ip), vehicle: saline 98 % of control | [11] 93 % of control | [12] 96 % of control

CC(C)(C)c1cc(/C=N/NC(=O)CNC(=O)NCc2ccco2)cc(C(C)(C)C)c1O
inactive: [4] 93 % of control | [13] 101 % of control | [14] 104 % of control

COc1ccc(N2C(N)=NC(N)=NC2(C)C)cc1
inactive: endpoint: mean survival time, dose: 25.0 mg/kg/injection, schedule: Q04DX002 (ip), vehicle: saline 106 % of control | endpoint: mean survival time, dose: 50.0 mg/kg/injection, schedule: Q04DX002 (ip), vehicle: saline 100 % of control

CCOC(=O)C(C(=O)OCC)C1CCC2(C)CCC(=O)C=C2C1 (stereo not given)
inactive: [5] 100 % of control and 107 % of control and 108 % of control | [7] 100 % of control and 101 % of control and 104 % of control | [9] 98 % of control and 100 % of control | endpoint: mean survival time, dose: 600.0 mg/kg/injection, schedule: Q04DX002 (ip), vehicle: saline with Tween-80 109 % of control

CN(C)/C=N/N1C(=O)CSC1=S
inactive: [11] 107 % of control | [12] 103 % of control | [15] 101 % of control and 103 % of control

CCN(CC)[P+](c1ccccc1O)(N(CC)CC)N(CC)CC
inactive: endpoint: mean survival time, dose: 0.39 mg/kg/injection, schedule: Q01DX009 (ip), vehicle: saline 103 % of control | endpoint: mean survival time, dose: 0.78 mg/kg/injection, schedule: Q01DX009 (ip), vehicle: saline 104 % of control | endpoint: mean survival time, dose: 1.56 mg/kg/injection, schedule: Q01DX009 (ip), vehicle: saline 109 % of control | endpoint: mean survival time, dose: 6.25 mg/kg/injection, schedule: Q01DX009 (ip), vehicle: saline 92 % of control

C/C(CC(C)C)=N\NC(=O)CNC(=O)c1ccccc1
inactive: [13] 90 % of control | [14] 92 % of control | endpoint: mean survival time, dose: 400.0 mg/kg/injection, schedule: Q01DX009 (ip), vehicle: saline with Tween-80 96 % of control

O=S(=O)(Nc1ccc(Br)cc1)c1ccc(Cl)c(Cl)c1
inactive: [5] 91 % of control | [7] 88 % of control | [9] 88 % of control

CCC(C=O)Cc1ccccc1 (stereo not given)
inactive: [6] 95 % of control | [8] 94 % of control | [10] 88 % of control

O=C(/C=C/c1ccc(Cl)cc1)c1ccccc1
inactive: endpoint: mean survival time, dose: 50.0 mg/kg/injection, schedule: Q01DX009 (ip), vehicle: Klucel (hydroxypropylcellulose) (HPC) 94 % of control | endpoint: mean survival time, dose: 100.0 mg/kg/injection, schedule: Q01DX009 (ip), vehicle: Klucel (hydroxypropylcellulose) (HPC) 102 % of control | endpoint: mean survival time, dose: 200.0 mg/kg/injection, schedule: Q01DX009 (ip), vehicle: Klucel (hydroxypropylcellulose) (HPC) 105 % of control

O=C(CCl)N1CCC(CC2(c3cc4ccccc4[nH]3)OCCO2)CC1
inactive: endpoint: mean survival time, dose: 50.0 mg/kg/injection, schedule: Q04DX002 (ip), vehicle: other 106 % of control | endpoint: mean survival time, dose: 100.0 mg/kg/injection, schedule: Q04DX002 (ip), vehicle: other 109 % of control | endpoint: mean survival time, dose: 200.0 mg/kg/injection, schedule: Q04DX002 (ip), vehicle: other 91 % of control

CCOC(=O)Cc1cnc(SC)nc1Nc1ccc(C)cc1
inactive: [1] 97 % of control | [2] 108 % of control | [3] 106 % of control

Nc1ccc([N+](=O)[O-])c(S(=O)(=O)O)c1
inactive: [6] 95 % of control | [8] 95 % of control | [10] 89 % of control

O=c1c2ccccc2c(-c2ccccc2)nn1Cc1ccccc1
inactive: [6] 103 % of control | [8] 108 % of control | [10] 98 % of control

CS(=O)(=O)Nc1ccc(Nc2c3ccccc3nc3cc(Cl)ccc23)cc1
active: [4] 186 % of control | [15] 160 % of control | endpoint: mean survival time, dose: 200.0 mg/kg/injection, schedule: Q04DX003 (ip), vehicle: saline 225 % of control
inactive: endpoint: mean survival time, dose: 133.0 mg/kg/injection, schedule: Q04DX003 (ip), vehicle: saline with Tween-80 114 % of control

CC(C)C(Br)C(=O)NCC(=O)NCC(=O)O (stereo not given)
inactive: [6] 101 % of control | [8] 100 % of control | [10] 92 % of control

Cn1nnc2c(C(N)=O)ncn2c1=O
inactive: endpoint: median survival time, dose: 6.25 mg/kg/injection, schedule: Q01DX009 (ip), vehicle: saline with Tween-80 111 % of control | endpoint: median survival time, dose: 12.5 mg/kg/injection, schedule: Q01DX009 (ip), vehicle: saline with Tween-80 122 % of control | endpoint: median survival time, dose: 200.0 mg/kg/injection, schedule: Q01DX009 (ip), vehicle: saline with Tween-80 121 % of control and 93 % of control
active: endpoint: median survival time, dose: 25.0 mg/kg/injection, schedule: Q01DX009 (ip), vehicle: saline with Tween-80 151 % of control | endpoint: median survival time, dose: 50.0 mg/kg/injection, schedule: Q01DX009 (ip), vehicle: saline with Tween-80 159 % of control and 168 % of control | endpoint: median survival time, dose: 100.0 mg/kg/injection, schedule: Q01DX009 (ip), vehicle: saline with Tween-80 182 % of control and 193 % of control

O=C1/C(=C\c2ccccc2)C2OCC=C3CN4CCC56c7ccccc7N1C5C2C3CC46 (stereo not given)
inactive: endpoint: mean survival time, dose: 75.0 mg/kg/injection, schedule: Q01DX001 (ip), vehicle: other 95 % of control

CN(Cc1ccccc1)/C(N)=N/N
inactive: endpoint: mean survival time, dose: 75.0 mg/kg/injection, schedule: Q01DX001 (ip), vehicle: saline 102 % of control | endpoint: mean survival time, dose: 150.0 mg/kg/injection, schedule: Q01DX001 (ip), vehicle: saline 107 % of control

COC1=C(C)C(=O)C2=C(C1=O)C(COC(N)=O)C1(OC)C3C(CN21)N3C(=O)c1ccccc1 (stereo not given)
inactive: endpoint: mean survival time, dose: 7.5 mg/kg/injection, schedule: Q01DX001 (ip), vehicle: acetone 106 % of control | endpoint: mean survival time, dose: 10.0 mg/kg/injection, schedule: Q01DX001 (ip), vehicle: acetone 112 % of control | endpoint: mean survival time, dose: 15.0 mg/kg/injection, schedule: Q01DX001 (ip), vehicle: acetone 112 % of control

CC(=O)OC1CC2CC(C1C)C2(C)C (stereo not given)
inactive: [13] 91 % of control | [6] 90 % of control | [8] 88 % of control | [10] 88 % of control
